# Source: ChEMBL document CHEMBL4665648, “Potent and selective inhibitors of receptor-interacting protein kinase 1 that lack an aromatic back pocket group” (Bioorg Med Chem Lett, 2019)
# Legend:
# [1] = target: Calcium/calmodulin-dependent protein kinase type II subunit alpha (Homo sapiens) (UniProt Q9UQM7); assay: Inhibition of recombinant human His-tagged full length CAMK2alpha expressed in baculovirus expression system using Ser/Thr 04 as substrate at 10 uM incubated for 60 mins by Z'-Lyte assay relative to control
# [2] = target: Serine/threonine-protein kinase B-raf (Homo sapiens) (UniProt P15056); assay: Inhibition of recombinant human GST-tagged full length BRAF expressed in baculovirus expression system using Ser/Thr 03 as substrate at 10 uM incubated for 60 mins by Z'-Lyte assay relative to control
# [3] = target: Misshapen-like kinase 1 (Homo sapiens) (UniProt Q8N4C8); assay: Inhibition of recombinant human GST-tagged MINK1 (1 to 320 residues) expressed in baculovirus expression system using Ser/Thr 07 as substrate at 10 uM incubated for 60 mins by Z'-lyte assay relative to control
# [4] = target: MAP kinase-activated protein kinase 2 (Homo sapiens) (UniProt P49137); assay: Inhibition of recombinant human His-tagged full length MAPKAPK2 expressed in Escherichia coli expression system using Ser/Thr 04 as substrate at 10 uM incubated for 60 mins by Z'-lyte assay relative to control
# [5] = target: Serine/threonine-protein kinase PLK3 (Homo sapiens) (UniProt Q9H4B4); assay: Inhibition of recombinant human GST-tagged PLK3 (58 to 340 residues) expressed in baculovirus expression system using Ser/Thr 16 as substrate at 10 uM incubated for 60 mins by Z'-lyte assay relative to control
# TAK1/TAB1 (Homo sapiens) = TAK1/TAB1 (Homo sapiens) (UniProt Q15750+O43318); assay: Inhibition of tracer 236 binding to recombinant human His-tagged full length TAK1-TAB1 expressed in baculovirus expression system at 10 uM incubated for 60 mins by Lanthascreen assay relative to control
# [6] = target: RAC-alpha serine/threonine-protein kinase (Homo sapiens) (UniProt P31749); assay: Inhibition of recombinant human His-tagged full length AKT1 expressed in baculovirus expression system using Ser/Thr 06 as substrate at 10 uM incubated for 60 mins by Z'-Lyte assay relative to control
# [7] = target: Serine/threonine-protein kinase 26 (Homo sapiens) (UniProt Q9P289); assay: Inhibition of recombinant human GST-tagged full length MST4 expressed in baculovirus expression system using Ser/Thr 07 as substrate at 10 uM incubated for 60 mins by Z'-lyte assay relative to control
# [8] = target: T1, Receptor-interacting serine/threonine-protein kinase 1 (Homo sapiens, UniProt Q13546); assay: Inhibition of recombinant human His/GST-tagged RIPK1 (2 to 257 residues) expressed in insect expression system incubated for 2 hrs by fluorescence polarization assay; details: read-out: Ki(app)
# T1 sequence (Q13546 whole entry): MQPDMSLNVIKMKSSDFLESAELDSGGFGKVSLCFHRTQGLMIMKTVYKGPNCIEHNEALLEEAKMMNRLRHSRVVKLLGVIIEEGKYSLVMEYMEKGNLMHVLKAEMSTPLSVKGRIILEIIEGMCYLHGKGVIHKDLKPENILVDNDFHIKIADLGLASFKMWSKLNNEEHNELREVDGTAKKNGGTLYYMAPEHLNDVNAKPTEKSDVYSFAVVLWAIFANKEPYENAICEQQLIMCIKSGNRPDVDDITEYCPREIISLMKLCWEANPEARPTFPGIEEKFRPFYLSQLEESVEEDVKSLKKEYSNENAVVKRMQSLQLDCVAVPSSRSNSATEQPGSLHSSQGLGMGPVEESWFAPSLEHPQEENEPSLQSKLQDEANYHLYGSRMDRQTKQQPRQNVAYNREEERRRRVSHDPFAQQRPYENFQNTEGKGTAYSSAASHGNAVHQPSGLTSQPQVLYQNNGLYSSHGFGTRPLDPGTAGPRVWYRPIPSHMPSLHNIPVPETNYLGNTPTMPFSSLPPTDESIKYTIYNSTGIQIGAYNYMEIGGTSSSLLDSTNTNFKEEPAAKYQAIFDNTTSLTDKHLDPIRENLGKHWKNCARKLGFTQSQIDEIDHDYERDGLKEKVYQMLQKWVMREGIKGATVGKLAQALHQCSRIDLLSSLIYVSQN
# [9] = target: Platelet-derived growth factor receptor alpha (Homo sapiens) (UniProt P16234); assay: Inhibition of recombinant human GST-tagged PDGFRalpha (550 to 1089 residues) expressed in baculovirus expression system using Tyr 04 as substrate at 10 uM incubated for 60 mins by Z'-lyte assay relative to control
# [10] = target: Tyrosine-protein kinase FRK (Homo sapiens) (UniProt P42685); assay: Inhibition of recombinant human GST-tagged full length FRK expressed in baculovirus expression system using Tyr 01 as substrate at 10 uM incubated for 60 mins by Z'-Lyte assay relative to control
# [11] = target: Calcium/calmodulin-dependent protein kinase type 1D (Homo sapiens) (UniProt Q8IU85); assay: Inhibition of recombinant human His-tagged full length CAMK1delta expressed in baculovirus expression system using Ser/Thr 25 as substrate at 10 uM incubated for 60 mins by Z'-Lyte assay relative to control
# [12] = target: Protein kinase C beta type (Homo sapiens) (UniProt P05771); assay: Inhibition of recombinant human His-tagged full length PKCbeta1 expressed in insect expression system using Ser/Thr 07 as substrate at 10 uM incubated for 60 mins by Z'-lyte assay relative to control
# [13] = target: Serine/threonine-protein kinase NLK (Homo sapiens) (UniProt Q9UBE8); assay: Inhibition of tracer 178 binding to recombinant human GST-tagged full length NLK expressed in baculovirus expression system at 10 uM incubated for 60 mins by Lanthascreen assay relative to control
# [14] = target: Dual specificity tyrosine-phosphorylation-regulated kinase 1A (Homo sapiens) (UniProt Q13627); assay: Inhibition of recombinant human GST-tagged full length DYRK1A expressed in baculovirus expression system using Ser/Thr 18 as substrate at 10 uM incubated for 60 mins by Z'-Lyte assay relative to control
# [15] = target: Activated CDC42 kinase 1 (Homo sapiens) (UniProt Q07912); assay: Inhibition of tracer 236 binding to recombinant human GST-tagged TNK2 (110 to 476 residues) expressed in baculovirus expression system at 10 uM incubated for 60 mins by Lanthascreen assay relative to control
# [16] = target: Macrophage colony-stimulating factor 1 receptor (Homo sapiens) (UniProt P07333); assay: Inhibition of recombinant human His-tagged CSF1R (538 to 910 residues) expressed in baculovirus expression system using Tyr 01 as substrate at 10 uM incubated for 60 mins by Z'-Lyte assay relative to control
# [17] = target: Serine/threonine-protein kinase MRCK alpha (Homo sapiens) (UniProt Q5VT25); assay: Inhibition of recombinant human His-tagged MRCKA (1 to 473 residues) expressed in baculovirus expression system using Ser/Thr 13 as substrate at 10 uM incubated for 60 mins by Z'-lyte assay relative to control
# [18] = target: Dual specificity protein kinase TTK (Homo sapiens) (UniProt P33981); assay: Inhibition of tracer 236 binding to recombinant human GST-tagged full length TTK expressed in baculovirus expression system at 10 uM incubated for 60 mins by Lanthascreen assay relative to control
# Chain of Tyrosine-protein kinase FRK (Homo sapiens) (P42685 whole entry): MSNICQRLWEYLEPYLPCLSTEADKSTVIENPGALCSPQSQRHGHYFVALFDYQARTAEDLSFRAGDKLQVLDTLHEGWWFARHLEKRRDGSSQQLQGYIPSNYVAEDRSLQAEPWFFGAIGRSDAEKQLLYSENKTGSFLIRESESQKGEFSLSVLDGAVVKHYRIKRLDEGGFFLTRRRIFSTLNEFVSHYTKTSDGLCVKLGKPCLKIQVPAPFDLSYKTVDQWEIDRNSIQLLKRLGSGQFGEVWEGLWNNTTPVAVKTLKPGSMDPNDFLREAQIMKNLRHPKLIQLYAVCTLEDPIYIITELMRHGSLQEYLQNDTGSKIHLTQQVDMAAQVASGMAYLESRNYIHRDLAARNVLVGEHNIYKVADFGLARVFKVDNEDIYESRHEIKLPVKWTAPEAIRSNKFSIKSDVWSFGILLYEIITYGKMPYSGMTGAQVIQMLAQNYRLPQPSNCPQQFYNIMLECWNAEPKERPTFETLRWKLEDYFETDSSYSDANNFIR
# Chain of Misshapen-like kinase 1 (Homo sapiens) (Q8N4C8 whole entry, looked up, the tested form may be a part): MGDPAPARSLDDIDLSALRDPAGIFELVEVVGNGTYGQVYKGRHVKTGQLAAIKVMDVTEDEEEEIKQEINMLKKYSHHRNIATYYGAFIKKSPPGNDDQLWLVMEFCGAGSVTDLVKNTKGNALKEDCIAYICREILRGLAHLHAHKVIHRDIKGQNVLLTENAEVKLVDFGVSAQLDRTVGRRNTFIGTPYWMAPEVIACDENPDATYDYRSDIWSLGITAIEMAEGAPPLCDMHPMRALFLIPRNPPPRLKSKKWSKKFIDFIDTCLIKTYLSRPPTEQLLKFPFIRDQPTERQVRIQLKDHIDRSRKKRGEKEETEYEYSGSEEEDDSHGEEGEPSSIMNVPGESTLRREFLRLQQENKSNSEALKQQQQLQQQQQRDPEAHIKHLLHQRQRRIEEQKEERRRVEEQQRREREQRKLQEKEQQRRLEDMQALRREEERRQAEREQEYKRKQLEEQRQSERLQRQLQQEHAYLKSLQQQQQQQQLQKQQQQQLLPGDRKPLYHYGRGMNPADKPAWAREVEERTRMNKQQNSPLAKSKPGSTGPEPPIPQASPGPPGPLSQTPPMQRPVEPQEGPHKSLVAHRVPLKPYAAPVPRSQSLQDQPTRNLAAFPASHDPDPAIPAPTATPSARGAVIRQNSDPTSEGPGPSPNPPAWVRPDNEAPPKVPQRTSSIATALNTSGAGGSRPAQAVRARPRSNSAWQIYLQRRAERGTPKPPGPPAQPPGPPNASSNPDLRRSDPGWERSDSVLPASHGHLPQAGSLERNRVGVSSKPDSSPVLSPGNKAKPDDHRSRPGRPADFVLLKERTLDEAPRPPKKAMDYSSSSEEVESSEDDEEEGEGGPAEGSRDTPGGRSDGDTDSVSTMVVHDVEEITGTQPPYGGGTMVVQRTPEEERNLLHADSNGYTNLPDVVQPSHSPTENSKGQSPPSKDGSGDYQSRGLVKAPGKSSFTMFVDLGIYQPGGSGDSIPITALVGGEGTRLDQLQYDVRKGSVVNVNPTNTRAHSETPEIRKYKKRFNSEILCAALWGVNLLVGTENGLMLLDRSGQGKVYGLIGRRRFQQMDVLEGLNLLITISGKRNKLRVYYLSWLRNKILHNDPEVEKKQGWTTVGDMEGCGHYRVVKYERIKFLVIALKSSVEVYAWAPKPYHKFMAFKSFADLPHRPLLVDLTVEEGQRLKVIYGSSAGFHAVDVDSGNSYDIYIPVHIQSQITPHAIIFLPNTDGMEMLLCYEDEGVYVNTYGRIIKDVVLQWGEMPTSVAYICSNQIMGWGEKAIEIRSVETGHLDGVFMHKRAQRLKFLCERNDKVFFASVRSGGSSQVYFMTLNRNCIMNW
# Chain of Serine/threonine-protein kinase B-raf (Homo sapiens) (P15056 whole entry, the tested form may be a part): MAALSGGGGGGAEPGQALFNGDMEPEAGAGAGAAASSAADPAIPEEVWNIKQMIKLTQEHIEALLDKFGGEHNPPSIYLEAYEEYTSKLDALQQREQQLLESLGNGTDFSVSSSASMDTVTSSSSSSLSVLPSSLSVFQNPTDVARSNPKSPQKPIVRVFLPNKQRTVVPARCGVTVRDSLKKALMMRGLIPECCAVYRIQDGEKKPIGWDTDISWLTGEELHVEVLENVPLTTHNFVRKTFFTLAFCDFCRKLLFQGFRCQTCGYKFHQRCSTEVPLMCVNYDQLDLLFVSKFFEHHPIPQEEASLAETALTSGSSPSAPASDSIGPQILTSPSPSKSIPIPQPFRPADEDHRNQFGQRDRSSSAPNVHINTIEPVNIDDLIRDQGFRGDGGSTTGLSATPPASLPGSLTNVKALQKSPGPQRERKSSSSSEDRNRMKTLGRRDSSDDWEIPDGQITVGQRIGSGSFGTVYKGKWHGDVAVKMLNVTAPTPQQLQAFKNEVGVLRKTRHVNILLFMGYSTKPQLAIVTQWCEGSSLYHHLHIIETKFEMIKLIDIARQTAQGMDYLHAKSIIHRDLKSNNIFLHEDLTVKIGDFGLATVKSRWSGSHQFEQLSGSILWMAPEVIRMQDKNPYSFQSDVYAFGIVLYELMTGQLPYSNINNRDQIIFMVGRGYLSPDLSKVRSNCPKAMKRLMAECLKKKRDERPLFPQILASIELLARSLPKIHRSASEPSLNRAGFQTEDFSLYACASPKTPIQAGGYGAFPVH
# Chain of RAC-alpha serine/threonine-protein kinase (Homo sapiens) (P31749 whole entry): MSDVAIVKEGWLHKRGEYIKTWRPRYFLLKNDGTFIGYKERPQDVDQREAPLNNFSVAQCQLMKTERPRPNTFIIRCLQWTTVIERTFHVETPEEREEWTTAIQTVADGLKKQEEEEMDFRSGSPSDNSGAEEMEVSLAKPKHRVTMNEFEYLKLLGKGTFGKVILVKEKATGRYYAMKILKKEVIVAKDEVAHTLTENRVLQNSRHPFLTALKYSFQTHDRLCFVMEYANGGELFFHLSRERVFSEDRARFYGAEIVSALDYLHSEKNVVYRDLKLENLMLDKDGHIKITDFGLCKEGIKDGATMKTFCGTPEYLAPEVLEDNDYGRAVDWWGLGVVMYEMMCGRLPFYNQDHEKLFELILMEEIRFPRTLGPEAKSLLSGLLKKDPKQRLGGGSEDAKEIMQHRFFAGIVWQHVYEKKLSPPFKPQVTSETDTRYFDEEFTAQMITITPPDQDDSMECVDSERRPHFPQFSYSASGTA
# Chain of Calcium/calmodulin-dependent protein kinase type II subunit alpha (Homo sapiens) (Q9UQM7 whole entry): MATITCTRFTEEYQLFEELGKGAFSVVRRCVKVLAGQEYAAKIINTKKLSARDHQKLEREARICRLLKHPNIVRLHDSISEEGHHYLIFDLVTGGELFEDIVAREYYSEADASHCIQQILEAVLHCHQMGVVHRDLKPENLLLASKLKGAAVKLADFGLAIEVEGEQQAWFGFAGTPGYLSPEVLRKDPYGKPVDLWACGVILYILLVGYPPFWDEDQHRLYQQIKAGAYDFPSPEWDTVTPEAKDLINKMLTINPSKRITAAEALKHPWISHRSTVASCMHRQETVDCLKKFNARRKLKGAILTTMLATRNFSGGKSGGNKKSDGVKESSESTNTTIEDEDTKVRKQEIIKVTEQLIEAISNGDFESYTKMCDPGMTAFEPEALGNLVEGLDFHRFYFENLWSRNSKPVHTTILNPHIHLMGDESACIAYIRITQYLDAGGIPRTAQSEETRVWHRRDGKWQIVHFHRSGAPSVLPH
# Chain of Serine/threonine-protein kinase PLK3 (Homo sapiens) (Q9H4B4 whole entry, looked up, the tested form may be a part): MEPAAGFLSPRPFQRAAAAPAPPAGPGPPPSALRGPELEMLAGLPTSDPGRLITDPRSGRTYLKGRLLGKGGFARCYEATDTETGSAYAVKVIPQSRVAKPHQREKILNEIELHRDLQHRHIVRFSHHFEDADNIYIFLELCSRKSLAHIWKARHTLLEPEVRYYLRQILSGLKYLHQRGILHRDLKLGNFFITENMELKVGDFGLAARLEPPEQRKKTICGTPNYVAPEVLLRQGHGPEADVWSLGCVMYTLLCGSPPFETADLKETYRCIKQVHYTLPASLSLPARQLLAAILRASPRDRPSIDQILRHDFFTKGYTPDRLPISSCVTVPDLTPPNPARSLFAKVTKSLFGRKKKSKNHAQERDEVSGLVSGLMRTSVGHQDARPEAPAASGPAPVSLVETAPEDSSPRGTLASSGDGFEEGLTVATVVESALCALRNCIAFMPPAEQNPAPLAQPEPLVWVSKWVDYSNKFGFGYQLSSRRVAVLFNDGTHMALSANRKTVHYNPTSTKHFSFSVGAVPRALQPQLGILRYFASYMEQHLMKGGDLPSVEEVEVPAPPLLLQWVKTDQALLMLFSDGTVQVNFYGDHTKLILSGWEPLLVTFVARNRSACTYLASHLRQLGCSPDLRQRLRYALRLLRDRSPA
# Chain of Calcium/calmodulin-dependent protein kinase type 1D (Homo sapiens) (Q8IU85 whole entry, looked up): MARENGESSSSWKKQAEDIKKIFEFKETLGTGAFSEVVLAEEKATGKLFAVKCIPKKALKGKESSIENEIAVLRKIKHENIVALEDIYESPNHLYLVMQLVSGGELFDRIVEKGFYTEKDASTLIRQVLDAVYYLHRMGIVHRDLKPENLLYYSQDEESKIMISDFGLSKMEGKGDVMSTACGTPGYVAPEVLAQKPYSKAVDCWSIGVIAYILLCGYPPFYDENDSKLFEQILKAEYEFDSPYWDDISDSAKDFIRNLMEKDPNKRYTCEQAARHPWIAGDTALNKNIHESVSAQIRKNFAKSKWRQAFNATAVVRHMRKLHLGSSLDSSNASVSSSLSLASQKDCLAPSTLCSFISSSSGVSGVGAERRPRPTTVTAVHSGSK
# Chain of Serine/threonine-protein kinase 26 (Homo sapiens) (Q9P289 whole entry, looked up, the tested form may be a part): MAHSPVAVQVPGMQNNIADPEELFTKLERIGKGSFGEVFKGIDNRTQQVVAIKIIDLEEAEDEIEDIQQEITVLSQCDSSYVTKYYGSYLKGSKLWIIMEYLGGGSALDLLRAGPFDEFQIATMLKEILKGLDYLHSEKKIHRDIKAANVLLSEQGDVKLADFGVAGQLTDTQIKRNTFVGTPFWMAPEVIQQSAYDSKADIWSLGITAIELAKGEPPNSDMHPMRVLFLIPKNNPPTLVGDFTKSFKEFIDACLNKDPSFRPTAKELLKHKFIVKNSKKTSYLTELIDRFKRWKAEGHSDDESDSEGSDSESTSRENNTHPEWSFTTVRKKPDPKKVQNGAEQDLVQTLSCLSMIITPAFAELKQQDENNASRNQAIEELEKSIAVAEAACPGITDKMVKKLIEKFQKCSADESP
structure (smiles),measurement,setting,value
CN1C(=O)[C@@H](NC(=O)c2n[nH]c3ncc(C(F)(F)C(F)(F)F)cc23)COc2ccccc21,inhibition,[1],1%
same,inhibition,[2],26.5%
same,inhibition,[3],12.5%
same,inhibition,[4],4%
same,inhibition,[5],7%
same,inhibition,TAK1/TAB1 (Homo sapiens),7.5%
same,inhibition,[6],-0.5%
same,inhibition,[7],8.5%
same,Ki,[8],6 nM
same,inhibition,[9],2.5%
same,inhibition,[10],5%
same,inhibition,[11],5%
same,inhibition,[12],5.5%
same,inhibition,[13],-3.5%
same,inhibition,[14],3.5%
same,inhibition,[15],1.5%
same,inhibition,[16],15%
same,inhibition,[17],0%
same,inhibition,[18],-6.5%
